Measured values as given in PubChem BioAssay (NCI).
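Exposure lasted 48 hours, with cells grown in 96-well plates and compounds tested at five concentrations. The concentration for full growth arrest is given as TGI.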

Legend:
Assay in all cases: growth of human tumour cells (NCI), 48 h
[1] = system: NCI-H522 lung
[2] = system: NCI-H460 lung
[3] = system: HL-60(TB) leukemia
[4] = system: CCRF-CEM leukemia
[5] = system: SK-MEL-28 melanoma
[6] = system: SN12C renal
[7] = system: A498 renal
[8] = system: NCI-H226 lung
[9] = system: HCT-116 colon
[10] = system: SNB-19 CNS

SMILES | TGI [1] [µM] | TGI [2] [µM] | TGI [3] [µM] | TGI [4] [µM] | TGI [5] [µM] | TGI [6] [µM] | TGI [7] [µM] | TGI [8] [µM] | TGI [9] [µM] | TGI [10] [µM]
CCOC(=O)C1=CN(C(=O)c2ccccc2)CCC1Cc1ccccc1 (stereo not drawn) | 40.5 | 44.9 | 32.2 | 54.5 | 63.3 | 57.4 | 39.4 | > 100 | 84.4 | > 100
Cc1ccc(CC(=O)Nc2ccc(NC(=O)CNC(=O)/C=C/c3ccc(-c4ccccc4)cc3)cc2C(=O)c2ccccc2)cc1 | 18.4 | 11.1 | 20.7 | 17.1 | 66.6 | 9.93 | 8.73 | 8.39 | 2.65 | 20.3
C=CCc1cccc2cc(C(=O)Nc3nc(C45CC6CC(CC(C6)C4)C5)cs3)c(=O)oc12 | > 100 | > 100 | > 100 | > 100 | > 100 | > 100 | 70.6 | > 100 |  | 64.2
CSc1nc(=O)c(C#N)c(-c2ccccc2)n1C1OC(COC(C)=O)C(OC(C)=O)C(OC(C)=O)C1OC(C)=O (stereo not drawn) | > 100 | > 100 | > 100 | > 100 | > 100 | > 100 | > 100 | > 100 | > 100 | > 100
Cc1ccc(C2(c3ccc(C)c(O)c3C)CCN(C)CC2)c(C)c1O | > 100 | > 100 |  | > 100 | > 100 | > 100 | > 100 | > 100 | > 100 | > 100
CN1N(c2ccccc2)C(=O)C2=NC=C(C#N)C(=N)C21C (stereo not drawn) | > 100 | > 100 |  | > 100 | > 100 | > 100 | > 100 | > 100 | > 100 | > 100
CCCC1C(C#N)(C#N)C(C#N)=C(N)C1(C)C(C)=O (stereo not drawn) | > 100 |  | > 100 | > 100 |  | > 100 | > 100 | > 100 | > 100 | > 100
CN(/N=C/c1ccc(Cl)c(Cl)c1)C1=NCCN1 | 27.8 | > 100 |  | > 100 |  | 92.7 | 28.1 | 72 | 39.1 | > 100
